# Source: US9815788B2, “Anti-angiogenic compounds” (University College Dublin National University of Ireland, …, priority 2012, dated 2017)
# Counter-ions that a name gives are not always drawn.
# Tests used:
# [1] = tested on: OE33R radio-resistant oesophageal adenocarcinoma cells; test: Surviving fraction (colony formation), OE33R; assay type: cell-based, human; details: 10 μM, 24 hours
# Protocol: (§1) OE33P radio-sensitive and OE33R radio-resistant oesophageal adenocarcinoma cells were used to test the effects of the compounds 11B HCl and 11B CC11 HCl on cell survival. Cells were maintained in RPMI media supplemented with 10% foetal calf serum, penicillin (100 U/ml) and streptomycin (100 μg/ml). Cells were seeded in 6 well plates and left to incubate for 24 hours. The media was replaced with solutions containing 10 μM of 11B HCl, 11B CC11 HCl or fresh media as a control. After 24 hours of treatment, media was replaced. When control colonies had grown sufficiently large, the media was disposed and the cells washed with PBS. The cells were fixed with methanol and stained with crystal violet. The surviving fraction, the ability of the cells to form colonies was then determined.
# as §1, with “replaced and cells were subjected to 2Gy radiation.” for “replaced.”, “Surviving” for “The surviving”
# as §1, with “hours. The cells were subjected to 2Gy irradiation and the media was” for “hours. The media was”, “crystal violet. Surviving fraction, the” for “crystal violet. The surviving fraction, the”
# [2] = tested on: OE33P radio-sensitive oesophageal adenocarcinoma cells; test: Surviving fraction (colony formation), OE33P; assay type: cell-based, human; details: 10 μM, 24 hours
# Protocol: as §1
# as §1, with “replaced and cells were subjected to 2Gy radiation.” for “replaced.”, “Surviving” for “The surviving”
# OE33P radio-sensitive and OE33R radio-resistant oesophageal adenocarcinoma cells were used to test the effects of the compounds 11B HCl and 11B CC11 HCl on cell survival. Cells were maintained in RPMI media supplemented with 10% foetal calf serum, penicillin (100 U/ml) and streptomycin (100 μg/ml). Cells were seeded in 6 well plates and left to incubate for 24 hours. […] Surviving fraction, the ability of the cells to form colonies was then determined.
# [3] = tested on: zebrafish hyaloid vasculature; test: Quantification of primary hyaloid vasculature branch number in Tg(fli1:EGFP) zebrafish; assay type: in vivo; details: for dose-dependent inhibition of development of hyaloid vessels: decreasing doses 20, 10, 7.5, 5, 2.5, 1 and/or 0.5 μM, HCl salt; for inhibition of developmental angiogenesis of the hyaloid vasculature (number of primary hyaloid vessels): typically 10 μM or 5 μM, from 24 hpf, vs DMSO control
# In short: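 Tg(fli1:EGFP) larvae raised at 28° C on a 14/10 hr light cycle, euthanised and fixed overnight in 4% PFA at 4° C. Dissected lenses imaged by epi-fluorescence; hyaloid vessel patterning compared with DMSO controls and the archetypal pattern.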
# [4] = tested on: retinal blood vessels; test: Ocular neovascularisation in mouse oxygen-induced retinopathy model; assay type: in vivo, C57BL/6J mice; details: 5 μM injected intravitreally on P13, culled P17; compared to P17 control
# Protocol: Postnatal day (P) 7 C57BL/6J mice together with their dams were treated in 75% oxygen (hyperoxia) for 5 days causing regression of retinal blood vessels. They were returned to normoxia (relative hypoxia) on P12, causing rapid regrowth of the retinal blood vessels, 5 μM 11B_CC11_HCl, 5 μM 11B_CC16_HCl, 5 μM pazopanib or 2.5 mg/ml avastin was injected intravitreally on P13. The mice were culled on P17, eyes fixed in 4% paraformaldehyde at 4° C. overnight, flat mounted and retinas stained for isolectin (red, stains vasculature).
# [5] = treated following 2Gy irradiation
# [6] = treated prior to 2Gy irradiation
SMILES,surviving fraction ([1]; no irradiation),"surviving fraction [1, 5]","surviving fraction [1, 6]",surviving fraction ([2]; no irradiation),"surviving fraction [2, 6]",dose-dependent inhibition of development of hyaloid vessels [3],dose-dependent inhibition of development of hyaloid vessels ([3]; listed as 11B-CC11 HCl),inhibition of developmental angiogenesis of the hyaloid vasculature (number of primary hyaloid vessels) [3],inhibition of neovascularisation (avascular region as percentage of whole retina) [4]
Oc1ccccc1/C=C/c1ccc2ccccc2n1 [11B HCl],significantly reduce,significantly reduce,significantly reduce,significantly reduce,significantly reduces,–,–,–,–
"C/C(=C\c1ccccc1O)c1ccc2ccccc2n1.Cl [Compound 11B_CC11_HCl, (E)-2-(2-Quinolin-2-yl-propenyl)-phenol HCl salt]",significantly reduce,significantly reduce,significantly reduce,significantly reduce,–,inhibit developmental angiogenesis of zebrafish hyaloid vasculature in a dose-dependent statistically significant manner,dose-dependent effect,inhibit developmental angiogenesis of the zebrafish hyaloid vasculature in a statistically significant manner,inhibit neovascularisation
"Cl.Oc1ccccc1/C=C\c1ccc2ccccc2n1 [Compound 11B_Z_HCl, (Z)-2-(2-(Quinolin-2-yl)vinyl) phenol HCl salt]",–,–,–,–,–,–,–,inhibit developmental angiogenesis of the zebrafish hyaloid vasculature in a statistically significant manner,–
